Laboratory results from patent US20200404919A1, “USE OF HETEROARYL-TRIAZOLE AND HETEROARYL-TETRAZOLE COMPOUNDS AS PESTICIDES IN PLANT PROTECTION” (Bayer Aktiengesellschaft, priority 2018, published 2020).

Tests used:
Format in all cases: in vivo
Aphis gossypii = Aphis gossypii - oral test; details: 120 h, read-out: mortality in %
Experimental: Solvent: 100 parts by weight acetone
To produce a suitable preparation of active compound, 1 part by weight of active compound is mixed with the stated amount of solvent, and the concentrate is diluted with water to the desired concentration.
50 μl compound solution is filled in microtiter plates and 150 μl IPL41 insect medium (33%+15% sugar) is added to obtain a total volume of 200 μl per well. Afterwards the plates are sealed with parafilm through which a mixed population of the cotton aphid (Aphis gossypii) can suck on the compound preparation.
(§1) After 5 days mortality in % is determined. 100% means all aphids have been killed and 0% means none of the aphids have been killed.

Nilaparvata lugens = Nilaparvata lugens - spray test 1; details: in Oryza sativa, 96 h, read-out: mortality in %, 500 g/ha, rice plants, after 4 days
Experimental: Nilaparvata lugens—Spray Test 1
(§2) To produce a suitable preparation of active compound, 1 part by weight of active compound is mixed with the stated amount of solvents and is diluted with water, containing an emulsifier concentration of 1000 ppm, to the desired concentration. Further test concentrations are prepared by dilution with emulsifier containing water.
Rice plants (Oryza sativa) are sprayed with a preparation of the active ingredient of the desired concentration and the plants are infested with the brown planthopper (Nilaparvata lugens).
After 4 days mortality in % is determined. 100% means all planthoppers have been killed and 0% means none of the planthoppers have been killed.

Spodoptera frugiperda = Spodoptera frugiperda - spray test; details: in Zea mays, 168 h, read-out: mortality in %
Experimental: Spodoptera frugiperda—Spray Test
as §2
Maize (Zea mays) leaf sections are sprayed with a preparation of the active ingredient of the desired concentration. Once dry, the leaf sections are infested with fall armyworm larvae (Spodoptera frugiperda).
After 7 days mortality in % is determined. 100% means all caterpillars have been killed and 0% means none of the caterpillars have been killed.

Diabrotica balteata = Diabrotica balteata - spray test; details: 168 h, 160 μg/well, germinated wheat seeds, larvae, after 7 days, read-out: efficacy in %
Experimental: Diabrotica balteata—Spray Test
as §2, with “solvent,” for “solvents”, “and the concentrate” for “and”
Soaked wheat seeds (Triticum aestivum) are placed in a multiple well plate filled with agar and some water and are incubated for 1 day to germinate (5 seeds per well). The germinated wheat seeds are sprayed with a test solution containing the desired concentration of the active ingredient. Afterwards each unit is infected with 10-20 larvae of the banded cucumber beetle (Diabrotica balteata).
After 7 days efficacy in % is determined. 100% means all the seedlings have grown up like in the untreated, uninfected control; 0% means none of the seedlings have grown.

Myzus persicae = Myzus persicae - oral test; details: 120 h, read-out: mortality in %
Experimental: To produce a suitable preparation of active compound, 1 part by weight of active compound is mixed with the stated amount of solvent, and the concentrate is diluted with water to the desired concentration. 50 μl compound solution is filled in microtiter plates and 150 μl IPL41 insect medium (33%+15% sugar) is added to obtain a total volume of 200 μl per well. Afterwards the plates are sealed with parafilm through which a mixed population of the green peach aphid (Myzus persicae) can suck on the compound preparation.
as §1

Phaedon cochleariae = Phaedon cochleariae - spray test; details: in Brassica rapa, foliar, 168 h, read-out: mortality in %
Experimental: Phaedon cochleariae—Spray Test
as §2
Chinese cabbage (Brassica pekinensis) leaf disks are sprayed with a preparation of the active ingredient of the desired concentration. Once dry, the leaf disks are infested with mustard beetle larvae (Phaedon cochleariae).
After 7 days mortality in % is determined. 100% means all beetle larvae have been killed and 0% means none of the beetle larvae have been killed.

Nezara viridula = Nezara viridula - spray test 1; details: in Hordeum vulgare, 96 h, read-out: mortality in %
Experimental: Nezara viridula—Spray Test 1
as §2, with “solvent,” for “solvents”, “and the concentrate” for “and”
Barley plants (Hordeum vulgare) infested with larvae of the southern green stink bug (Nezara viridula) are sprayed with a test solution containing the desired concentration of the active ingredient.
After 4 days mortality in % is determined. 100% means all the stink bugs have been killed; 0% means none of the stink bugs have been killed.

[1] = system: Musca domestica strain WHO-N; assay: Musca domestica test (MUSCDO surface treatment & contact assay); details: 30 minutes exposure, 24 hours after contact, read-out: efficacy (mortality in percent)
Experimental: Musca domestica Test (MUSCDO Surface Treatment & Contact Assay)
(§3) Solvent: Aceton+2000 ppm Rapeseed oil methyl ester (RME)
(§4) In order to produce a sufficient, active ingredient containing solution it is necessary to solve the test-compound in an acetone/RME solvent mixture. This solution is pipetted onto a glazed tile and after evaporation of the acetone, adult flies of the species Musca domestica strain WHO-N are placed onto the dried surface. The exposure time is 30 minutes.
(§5) Mortality in percent (%) is determined 24 hours after contact to the treated surface. 100% mortality means that all test-insects are dead, whereas 0% means that not a single insect died.

[2] = system: Blattella germanica strain PAULINIA; assay: Blattella germanica test (BLTTGE surface treatment & contact assay); details: surface concentration 20 mg/m^2, glazed tile, 30 minutes exposure, 24 hours after contact, read-out: efficacy (mortality in percent)
Experimental: Blattella germanica Test (BLTTGE Surface Treatment & Contact Assay)
as §3
as §4, with “animals” for “flies”, “Blattella germanica” for “Musca domestica”, “PAULINIA” for “WHO-N”
as §5

[3] = system: Aedes aegypti strain MONHEIM; assay: Aedes test (AEDSAE surface treatment & contact assay); details: 30 minutes exposure, 24 hours after contact, read-out: efficacy (mortality in percent)
Experimental: Aedes Test (AEDSAE Surface Treatment & Contact Assay)
Solvent: Aceton+2000 ppm rapeseed oil methyl ester (RME)
as §4, with “mosquitoes” for “flies”, “Aedes aegypti” for “Musca domestica”, “MONHEIM” for “WHO-N”
as §5

Culex quinquefasciatus = assay: Culex test (CULXFAS surface treatment & contact assay); details: 30 minutes exposure, 24 hours after contact, read-out: efficacy (mortality in percent)
Experimental: Culex Test (CULXFAS Surface Treatment & Contact Assay)
Solvent: Acetone+2000 ppm rapeseed oil methyl ester (RME)
as §4, with “mosquitoes” for “flies”, “Culex quinquefasciatus (Brown house mosquito)” for “Musca domestica strain WHO-N”
as §5

[4] = surface concentration 4 mg/m^2, glazed tile
[5] = surface concentration 20 mg/m^2, glazed tile

Row | Structure (SMILES) | mortality at 100 ppm (Aphis gossypii) | mortality at 500 g/ha (Nilaparvata lugens) | mortality at 500 g/ha (Spodoptera frugiperda) | pest or weed control at 160 µg/disc, 160 µg/well (Diabrotica balteata) | mortality at 20 ppm (Myzus persicae) | mortality at 500 g/ha (Phaedon cochleariae) | mortality at 500 g/ha (Nezara viridula) | mortality at 4 mg/m2 [1, 4] | mortality at 20 mg/m2 [1, 5] | mortality at 20 mg/m2 [2] | mortality at 4 mg/m2 [3, 4] | mortality at 20 mg/m2 [3, 5] | mortality at 4 mg/m2 (Culex quinquefasciatus; [4]) | mortality at 20 mg/m2 (Culex quinquefasciatus; [5])
1 | CC(c1ncnn1-c1ncccn1)N(CC1CC1)C(=O)c1cc(Br)cc(C(F)(F)F)c1 (centres unmarked) [Compound I-62, 3-bromo-N-(cyclopropylmethyl)-N-[1-(2-pyrimidin-2-yl-1,2,4-triazol-3-yl)ethyl]-5-(trifluoromethyl)benzamide] | 100% | 90% | 100% | 100% | 100% | 100% | 90% |  |  |  |  |  |  | 
2 | C[C@H](NC(=O)c1cc(C(F)(F)F)cc(C(F)(F)F)c1)c1ncnn1-c1ncccn1 [Compound I-66, N-[(1S)-1-(2-pyrimidin-2-yl-1,2,4-triazol-3-yl)ethyl]-3,5-bis(trifluoromethyl)benzamide] | 100% | 100% | 100% | 100% | 100% | 100% | 100% |  |  |  |  |  |  | 
3 | Cc1nc(C(C)N(CC2CC2)C(=O)c2cc(Cl)cc(C(F)(F)F)c2)n(-c2ncc(Cl)cn2)n1 (centres unmarked) [Compound I-78, 3-chloro-N-[1-[2-(5-chloropyrimidin-2-yl)-5-methyl-1,2,4-triazol-3-yl]ethyl]-N-(cyclopropylmethyl)-5-(trifluoromethyl)benzamide] | 100% | 100% | 100% | 100% | 100% | 100% | 100% |  |  |  |  |  |  | 
4 | CC(c1ncnn1-c1ncccn1)N(Cc1ccc(F)cc1)C(=O)c1cc(Cl)cc(C(F)(F)F)c1 (centres unmarked) [Compound I-98] | 100% | 100% | 83% | 100% | 100% | 100% | 100% |  |  |  |  |  |  | 
5 | CC(c1ncnn1-c1ncccn1)N(Cc1ccccc1)C(=O)c1cc(Cl)cc(C(F)(F)F)c1 (centres unmarked) [Compound I-99] | 100% | 90% | 100% | 100% | 100% | 100% | 100% |  |  |  |  |  |  | 
6 | CC(c1ncnn1-c1ncccn1)N(C)C(=O)c1cc(Cl)cc(C(F)(F)F)c1 (centres unmarked) [Compound I-100, 3-chloro-N-methyl-N-[1-(2-pyrimidin-2-yl-1,2,4-triazol-3-yl)ethyl]-5-(trifluoromethyl)benzamide] | 100% | 100% | 100% | 100% | 100% | 100% | 100% |  |  |  |  |  |  | 
7 | CC(c1ncnn1-c1ncccc1F)N(CC1CC1)C(=O)c1cc(Cl)cc(C(F)(F)F)c1 (centres unmarked) [Compound I-106] | 100% | 100% | 100% | 100% | 100% | 100% | 100% |  |  |  |  |  |  | 
8 | CC(NC(=O)c1cncc(C(F)(F)F)c1)c1ncnn1-c1ncccn1 (centres unmarked) [Compound I-115] | 100% | 100% | 83% | 100% | 100% | 100% | 100% |  |  |  |  |  |  | 
9 | C[C@H](NC(=O)c1cc(Cl)cc(C(F)(F)F)c1)c1ncnn1-c1ccccn1 [Compound I-117, 3-chloro-N-[(1S)-1-[2-(2-pyridyl)-1,2,4-triazol-3-yl]ethyl]-5-(trifluoromethyl)benzamide] | 100% | 100% | 100% | 100% | 100% | 100% | 100% |  |  |  |  |  |  | 
10 | C[C@H](NC(=O)c1cc(Cl)cc(C(F)(F)F)c1)c1ncnn1-c1ccc(Cl)cn1 [Compound I-120, 3-chloro-N-[(1S)-1-[2-(5-chloro-2-pyridyl)-1,2,4-triazol-3-yl]ethyl]-5-(trifluoromethyl)benzamide] | 100% |  | 100% | 100% | 100% | 100% | 100% | 80 to 100% | 80 to 100% | 80 to 100% | 80 to 100% | 80 to 100% | 80 to 100% | 80 to 100%
11 | CC(c1ncnn1-c1ncccn1)N(CC(F)F)C(=O)c1cc(Cl)cc(OC(F)(F)F)c1 (centres unmarked) [Compound I-121, 3-chloro-N-(2,2-difluoroethyl)-N-[1-(2-pyrimidin-2-yl-1,2,4-triazol-3-yl)ethyl]-5-(trifluoromethoxy)benzamide] | 100% | 100% | 100% | 100% | 100% | 100% | 100% |  |  |  |  |  |  | 
12 | CC(c1ncnn1-c1ncccn1)N(CC(F)F)C(=O)c1cccc(SC(F)(F)F)c1 (centres unmarked) [Compound I-122] | 100% | 100% |  | 100% | 100% | 100% | 100% |  |  |  |  |  |  | 
